According to patent US7517857B2, “Immune-modulating peptide” (POSCO, priority 2002, dated 2009):
Where a SMILES comes first, the peptide text is derived from it. Where no end group is shown, it is not given here. [ ]: non-standard residue; d: D form.

Key:
Assay type in all cases: cell-based
FPR = target: T1, FPR (Homo sapiens, UniProt P21462); experiment: [Ca2+]i increase in FPR-expressing RBL-2H3 cells (fura-2); settings: for EC50 (nM), intracellular calcium increase / EC50: fura-2 loaded; for EC50: read-out: EC50 (nM), intracellular calcium increase
T1 construct: expressed in transfected cells; host or cells: RBL-2H3 (rat basophilic leukemia) cells, G418-selected
T1 sequence (P21462 1-350): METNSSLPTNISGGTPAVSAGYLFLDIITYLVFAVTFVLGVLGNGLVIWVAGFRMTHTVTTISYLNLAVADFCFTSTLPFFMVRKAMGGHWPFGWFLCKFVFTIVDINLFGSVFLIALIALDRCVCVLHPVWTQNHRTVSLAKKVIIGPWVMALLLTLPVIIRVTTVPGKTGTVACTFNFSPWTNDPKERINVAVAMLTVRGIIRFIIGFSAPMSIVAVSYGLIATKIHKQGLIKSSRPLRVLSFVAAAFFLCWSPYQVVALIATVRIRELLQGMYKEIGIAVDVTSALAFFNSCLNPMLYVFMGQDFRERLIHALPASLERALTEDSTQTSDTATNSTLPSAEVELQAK

FPRL1 = target: T2, FPRL1 (Homo sapiens, UniProt P25090); experiment: [Ca2+]i increase in FPRL1-expressing RBL-2H3 cells (fura-2); settings: for EC50: fura-2 loaded, read-out: EC50 (nM), intracellular calcium increase
T2 construct: expressed in transfected cells; host or cells: RBL-2H3 (rat basophilic leukemia) cells, G418-selected
T2 sequence (P25090 1-351): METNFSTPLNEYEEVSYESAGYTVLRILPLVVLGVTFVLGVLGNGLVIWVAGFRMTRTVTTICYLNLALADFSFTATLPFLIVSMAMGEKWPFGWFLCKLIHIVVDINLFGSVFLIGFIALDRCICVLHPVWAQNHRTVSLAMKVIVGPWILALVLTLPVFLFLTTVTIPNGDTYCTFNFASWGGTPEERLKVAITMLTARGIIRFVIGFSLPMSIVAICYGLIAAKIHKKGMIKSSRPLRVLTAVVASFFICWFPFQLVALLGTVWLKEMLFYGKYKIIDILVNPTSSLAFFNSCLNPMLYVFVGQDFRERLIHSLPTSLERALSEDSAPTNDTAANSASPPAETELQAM
Experimental: […] The level of [Ca^2+]i was determined fluorometrically by Grynkiewicz's method using fura-2/AM (15). Briefly, prepared cells were incubated with 3 μM fura-2/AM at 37° C. for 50 min in a fresh serum-free RPMI 1640 medium under continuous stirring. 2×10^6 cells were aliquoted for each assay in Ca^2+-free Locke's solution (154 mM NaCl, 5.6 mM KCl, 1.2 mM MgCl2, 5 mM HEPES, pH 7.3, 10 mM glucose, and 0.2 mM EGTA). Fluorescence changes at the dual excitation wavelengths of 340 nm and 380 nm and the emission wavelength of 500 nm were measured, and the calibrated fluorescence ratio was translated into [Ca^2+]i. The peak level of the increased [Ca^2+]i was monitored.
[…] The level of [Ca^2+]i was determined by the same procedures as above. The peak level of the increased [Ca^2+]i was monitored.

human neutrophils = experiment: Superoxide generation in human neutrophils (cytochrome c reduction); settings: for superoxide generating activity: 100 nM of peptides; for O^2− (nmol/10^6 cells), superoxide generation: cytochrome c reduction; for superoxide generation: 10 μM concentration
Experimental: Peripheral blood leukocyte concentrates were donated by the Ulsan Red Cross Blood Center (Ulsan, Korea). Human neutrophils were isolated according to the standard procedures of dextran sedimentation, hypotonic lysis of erythrocytes, and a lymphocyte separation medium gradient as described above (9). The isolated human neutrophils were then used promptly.
The activity of the peptides, WKYMVm, peptides of SEQ ID NOs: 1 to 24, and wkymvm on superoxide generation in human neutrophils was measured. Superoxide anion generation was quantified by measuring reduction of cytochrome c using a microtiter 96-well plate ELISA reader (Bio-Tekinstruments, EL312e, Winooski, Vt.) as described (14). The human neutrophils (1×10^6 cells/100 μl of RPMI 1640 medium per well of a 96-well plate) were preincubated with 50 μM cytochrome c at 37° C. for 1 min and then incubated with the indicated concentrations of peptides. The superoxide generation was measured as a change in light absorption at 550 nm over 5 minutes at 1 min intervals. From at least four independent experiments, peptides with active amino acids at each position were chosen.

| Compound | EC50 (nM), intracellular calcium increase (FPR) | O^2− (nmol/10^6 cells), superoxide generation (human neutrophils; peptide 100 nM) | O^2− (nmol/10^6 cells), superoxide generation (human neutrophils; peptide 10 μM) | further results |
| --- | --- | --- | --- | --- |
| CSCC[C@H](NC(=O)[C@H](Cc1ccc(O)cc1)NC(=O)[C@@H](N)CCCCN)C(=O)N[C@H](C(=O)N[C@H](CCSC)C(N)=O)C(C)C [KYMVm-NH2, Lys-Tyr-Met-Val-D-Met-NH2] |  | 36.0 ± 3.56 nmol/10^6 cells | 49.2 ± 5.82 nmol/10^6 cells | superoxide generating activity (human neutrophils): stimulated superoxide generation |
| CSCC[C@H](NC(=O)[C@H](Cc1ccc(O)cc1)NC(=O)[C@H](CC(=O)O)NC(=O)[C@@H](N)Cc1c[nH]c2ccccc12)C(=O)N[C@H](C(=O)N[C@H](CCSC)C(N)=O)C(C)C [WDYMVm-NH2, Trp-Asp-Tyr-Met-Val-D-Met-NH2] (H-WDYMV[dM]-NH2; N-terminus assumed) |  | 25.8 ± 6.56 nmol/10^6 cells | 37.3 ± 5.66 nmol/10^6 cells |  |
| CSCC[C@H](NC(=O)[C@H](Cc1ccc(O)cc1)NC(=O)[C@H](CCC(=O)O)NC(=O)[C@@H](N)Cc1c[nH]c2ccccc12)C(=O)N[C@H](C(=O)N[C@H](CCSC)C(N)=O)C(C)C [WEYMVm-NH2, Trp-Glu-Tyr-Met-Val-D-Met-NH2] (H-WEYMV[dM]-NH2; N-terminus assumed) |  | 52.9 ± 12.78 nmol/10^6 cells | 35.3 ± 2.88 nmol/10^6 cells | superoxide generating activity (human neutrophils): stimulated superoxide generation |
| CSCC[C@H](NC(=O)[C@H](Cc1ccc(O)cc1)NC(=O)[C@H](Cc1c[nH]cn1)NC(=O)[C@@H](N)Cc1c[nH]c2ccccc12)C(=O)N[C@H](C(=O)N[C@H](CCSC)C(N)=O)C(C)C [WHYMVm-NH2, Trp-His-Tyr-Met-Val-D-Met-NH2] (H-WHYMV[dM]-NH2; N-terminus assumed) |  | 20.7 ± 7.85 nmol/10^6 cells | 20.7 ± 7.85 nmol/10^6 cells | [Ca^2+]i increasing activity (FPR): more improved affinity for the FPR against the peptide WKYMVm |
| CSCC[C@H](NC(=O)[C@H](CC(=O)O)NC(=O)[C@H](CCCCN)NC(=O)[C@@H](N)Cc1c[nH]c2ccccc12)C(=O)N[C@H](C(=O)N[C@H](CCSC)C(N)=O)C(C)C [WKDMVm-NH2, Trp-Lys-Asp-Met-Val-D-Met-NH2] (H-WKDMV[dM]-NH2; N-terminus assumed) |  | 16.3 ± 1.67 nmol/10^6 cells | 37.3 ± 2.78 nmol/10^6 cells | EC50 (FPR): 1330 ± 207 nM |
| CSCC[C@H](NC(=O)[C@H](CCC(=O)O)NC(=O)[C@H](CCCCN)NC(=O)[C@@H](N)Cc1c[nH]c2ccccc12)C(=O)N[C@H](C(=O)N[C@H](CCSC)C(N)=O)C(C)C [WKEMVm-NH2, Trp-Lys-Glu-Met-Val-D-Met-NH2] (H-WKEMV[dM]-NH2; N-terminus assumed) |  | 4.1 ± 0.21 nmol/10^6 cells | 39.2 ± 4.71 nmol/10^6 cells | EC50 (FPR): 1330 ± 88.8 nM |
| CSCC[C@H](NC(=O)[C@H](Cc1ccccc1)NC(=O)[C@H](CCCCN)NC(=O)[C@@H](N)Cc1c[nH]c2ccccc12)C(=O)N[C@H](C(=O)N[C@H](CCSC)C(N)=O)C(C)C [WKFMVm-NH2, Trp-Lys-Phe-Met-Val-D-Met-NH2] (H-WKFMV[dM]-NH2; N-terminus assumed) |  | 37.3 ± 3.56 nmol/10^6 cells | 60.2 ± 5.57 nmol/10^6 cells | superoxide generating activity (human neutrophils): stimulated superoxide generation; superoxide generation (human neutrophils): more potent activity than WKYMVm; [Ca^2+]i increasing activity (FPR): more improved affinity for the FPR against the peptide WKYMVm; [Ca^2+]i increasing activity (FPRL1): higher affinity to FPRL1 |
| CSCC[C@H](NC(=O)[C@H](Cc1c[nH]cn1)NC(=O)[C@H](CCCCN)NC(=O)[C@@H](N)Cc1c[nH]c2ccccc12)C(=O)N[C@H](C(=O)N[C@H](CCSC)C(N)=O)C(C)C [WKHMVm-NH2, Trp-Lys-His-Met-Val-D-Met-NH2] (H-WKHMV[dM]-NH2; N-terminus assumed) |  | 29.5 ± 7.71 nmol/10^6 cells | 39.3 ± 4.10 nmol/10^6 cells |  |
| CSCC[C@H](NC(=O)[C@H](Cc1c[nH]c2ccccc12)NC(=O)[C@H](CCCCN)NC(=O)[C@@H](N)Cc1c[nH]c2ccccc12)C(=O)N[C@H](C(=O)N[C@H](CCSC)C(N)=O)C(C)C [WKWMVm-NH2, Trp-Lys-Trp-Met-Val-D-Met-NH2] (H-WKWMV[dM]-NH2; N-terminus assumed) |  | 11.5 ± 0.97 nmol/10^6 cells | 65.0 ± 12.10 nmol/10^6 cells | superoxide generation (human neutrophils): more potent activity than WKYMVm; [Ca^2+]i increasing activity (FPR): more improved affinity for the FPR against the peptide WKYMVm; [Ca^2+]i increasing activity (FPRL1): higher affinity to FPRL1 |
| CSCC[C@H](NC(=O)[C@H](Cc1ccc(O)cc1)NC(=O)[C@H](CCCCN)NC(=O)[C@@H](N)Cc1c[nH]c2ccccc12)C(=O)N[C@@H](Cc1ccc(O)cc1)C(=O)N[C@H](CCSC)C(N)=O [WKYMYm-NH2, Trp-Lys-Tyr-Met-Tyr-D-Met-NH2] (H-WKYMY[dM]-NH2; N-terminus assumed) |  | 25.8 ± 3.89 nmol/10^6 cells | 42.9 ± 3.34 nmol/10^6 cells | [Ca^2+]i increasing activity (FPRL1): higher affinity to FPRL1 |
| CSCC[C@H](NC(=O)[C@@H](N)Cc1ccc(O)cc1)C(=O)N[C@H](C(=O)N[C@H](CCSC)C(N)=O)C(C)C [YMVm-NH2, Tyr-Met-Val-D-Met-NH2] (H-YMV[dM]-NH2; N-terminus assumed) |  | 30.2 ± 2.74 nmol/10^6 cells | 41.8 ± 3.46 nmol/10^6 cells |  |
| Trp-Lys-Tyr-Met-(Phe/Trp)-D-Met-NH2 [WKYM(F/W)m-NH2] |  | 6.1 ± 0.77 nmol/10^6 cells | 45.6 ± 7.76 nmol/10^6 cells | [Ca^2+]i increasing activity (FPRL1): higher affinity to FPRL1 |
| WKYMVW-NH2 [WKYMVW-NH2, Trp-Lys-Tyr-Met-Val-Trp-NH2] | inactive | 11.5 ± 1.62 nmol/10^6 cells | 56.8 ± 4.60 nmol/10^6 cells | superoxide generation (human neutrophils): more potent activity than WKYMVm |

Further lines, with some results ahead:

| EC50 (nM), intracellular calcium increase (FPR) | Compound | O^2− (nmol/10^6 cells), superoxide generation (human neutrophils; peptide 100 nM) | O^2− (nmol/10^6 cells), superoxide generation (human neutrophils; peptide 10 μM) | further results |
| --- | --- | --- | --- | --- |
| inactive | CSCC[C@H](NC(=O)[C@H](Cc1ccc(O)cc1)NC(=O)[C@@H](N)CCCCN)C(=O)N[C@H](C(N)=O)C(C)C [KYMV-NH2, Lys-Tyr-Met-Val-NH2] (H-KYMV-NH2) |  |  | EC50 (FPRL1): > 30000 nM |
| inactive | CSCC[C@H](N)C(=O)N[C@H](C(=O)N[C@H](CCSC)C(N)=O)C(C)C [MVm-NH2, Met-Val-D-Met-NH2] (H-Met-Val-[dM]-NH2) |  |  | EC50 (FPRL1): > 30000 nM |
| inactive | WKYMV-NH2 [WKYMV-NH2, Trp-Lys-Tyr-Met-Val-NH2] | 9.2 ± 0.55 nmol/10^6 cells | 25.6 ± 2.20 nmol/10^6 cells |  |
| inactive | WKYMVG-NH2 [WKYMVG-NH2, Trp-Lys-Tyr-Met-Val-Gly-NH2] | 4.4 ± 0.54 nmol/10^6 cells | 27.3 ± 1.40 nmol/10^6 cells |  |
| inactive | WKYMVV-NH2 [WKYMVV-NH2, Trp-Lys-Tyr-Met-Val-Val-NH2] | 5.0 ± 0.21 nmol/10^6 cells | 36.3 ± 2.29 nmol/10^6 cells |  |
